From ChEMBL document CHEMBL1132826, “6-Hydroxy-1,3-dioxin-4-ones as non-peptidic HIV protease inhibitors” (Bioorg Med Chem Lett, 2000)
pEC50, pIC50: −log10 of the molar value.

How the values were obtained:
MT4 [1] = experiment: Compound was evaluated for the antiviral activity in HIV-I IIIB infected MT-4 cells assay; type: functional, cell-based; details: Homo sapiens
MT4 [2] = experiment: Cytotoxic concentration was measured in HIV-I IIIB infected MT-4 cells assay; type: functional; details: Homo sapiens
[3] = molecular target: Human immunodeficiency virus type 1 protease (Human immunodeficiency virus 1, UniProt Q72874); experiment: Compound was evaluated for the inhibitory activity towards HIV protease
[4] = Ratio of compound cytotoxic concentration (CC50) to that of antiviral activity (EC50); type: functional

Compound: CCCC1(CCc2ccccc2)OC(=O)C(C(CC)c2cccc(NS(=O)(=O)c3ccc(N)cn3)c2)=C(O)O1 (stereo not given)
- pEC50 (MT4 [1]): < 4.16
- CC50 (MT4 [2]): 70 µM
- pIC50 [3]: 7.89
- SI [4]: <1

Compound: CCCC1(CCc2ccccc2)OC(=O)C(C(CC)c2cccc(NS(=O)(=O)c3ccc(C#N)cn3)c2)=C(O)O1 (stereo not given)
- pEC50 (MT4 [1]): 4.94
- CC50 (MT4 [2]): 77 µM
- pIC50 [3]: 8.52
- SI [4]: 6.77

Compound: CCCC1(CCc2ccccc2)OC(=O)C(C(CC)c2cccc(NS(=O)(=O)c3ccc([N+](=O)[O-])cn3)c2)=C(O)O1 (stereo not given)
- pEC50 (MT4 [1]): < 4.83
- CC50 (MT4 [2]): 14.8 µM
- pIC50 [3]: 7.19
- SI [4]: <1

Compound: CCCC1(CCc2ccccc2)OC(=O)C(C(CC)c2cccc(NS(=O)(=O)c3ccc(C(F)(F)F)cn3)c2)=C(O)O1 (stereo not given)
- pEC50 (MT4 [1]): 6.02
- CC50 (MT4 [2]): 63 µM
- pIC50 [3]: 8.00
- SI [4]: 65.69

Compound: CCCC1(CCc2ccccc2)OC(=O)C(C(CC)c2cccc(NS(=O)(=O)c3ccc(C#N)cc3)c2)=C(O)O1 (stereo not given)
- pEC50 (MT4 [1]): < 4.18
- CC50 (MT4 [2]): 66.5 µM
- pIC50 [3]: 7.82
- SI [4]: <1

Compound: CCCC1(CCc2ccccc2)OC(=O)C(C(CC)c2cccc(NS(=O)(=O)c3ccccn3)c2)=C(O)O1 (stereo not given)
- pEC50 (MT4 [1]): 4.06
- CC50 (MT4 [2]): > 178 µM
- pIC50 [3]: 7.89
- SI [4]: >2.05

Compound: CCC[C@]1(CCc2ccccc2)OC(=O)C([C@H](CC)c2cccc(NS(=O)(=O)c3ccc(C(F)(F)F)cn3)c2)=C(O)O1 (racemic)
- pIC50 [3]: 7.30
